From US5962524A, “Depigmenting composition” (Caster, priority 1997, dated 1999)

What was measured:
tyrosinase [1] = assay: Inhibition of the L-DOPA-tyrosinase reaction, revealed by thin layer chromatography; assay type: biochemical; conditions: 10 μl of a 1% solution in ethanol on silica gel plate; L-DOPA 1 M, tyrosinase 238 IU/ml
Protocol: 10 μl of a 1% solution of diethyl acetone-α,α'-dioxalate in ethanol (at 96%) is deposited onto G60 silica gel plates. The migration solvent is a butanol/water/acetic acid mixture (4/1/1, v/v/v) which is migrated to a height of 10 cm. After drying, an L-DOPA solution (1 M) is sprayed over the entire plate, followed by a tyrosinase solution (238 IU/ml). […] This white spot is due to the absence of tyrosinase activity converting the L-DOPA substrate into dopaquinone, the molecule which spontaneously converts into a brown pigment (brown background) in the presence of light.

tyrosinase [2] = assay: Inhibition of the tyrosine-tyrosinase reaction, spectrophotometric assay of melanin (absorbance at 477 nm); assay type: biochemical
Protocol: This is a spectrophotometric assay (absorbance at 477 nm) of the melanin produced in vitro by tyrosinase from the tyrosine substrate. […] 2.0 ml of bis Tris buffer (0.1 M, pH 6.5) and 5.0 ml of tyrosine stock solution are added to 0 ml, 1.2 ml, 2.0 ml and 2.5 ml of tyrosinase solution and the mixtures are each completed with water to a total volume of 10.0 ml. These mixtures are incubated for 1 hour and 30 minutes at 37° C. on a water bath and are then rapidly cooled to 4° C. Measurement of the absorbance of the solutions at λ=477 nm relative to a solution free of tyrosinase makes it possible to plot a calibration curve characterized by the curve equation y=0.813×+1.27×10^-3 and by a correlation coefficient equal to 0.999. The following solutions are then prepared: Control solution (100% tyrosinase activity): Solution to be ascertained: These two solutions are incubated for 1 hour 30 minutes on a water bath at 37° C. The solutions are rapidly cooled to 4° C. and the absorbance at 477 nm is then read, taking a blank free of tyrosinase as reference.

[3] = test system: tail pigmentation of black mice; assay: Depigmenting power in vivo on the tails of black mice (lightness parameter L*); conditions: concentration ten times as great increases the efficacy by a factor of two
Protocol: L 908/1). Composition 1: gel containing 99.0% of liposomes containing a 0.5% dose of diethyl acetone-α,α'-dioxalate Composition 2: emulsion containing 10.0% of liposomes containing a 0.5% dose of diethyl acetone-α,α'-dioxalate Reference product: composition containing 2% hydroquinone Each composition is applied daily for 28 days to the tail of four black mice. For each mouse, the lightness parameter L* is measured on day D0, D15 and D28 using a chromameter.

[4] = Oral toxicity in rats (LD50); conditions: rat, in vivo, administered orally to rats, read-out: 50% lethal dose (LD50)
Protocol: The evaluation of the toxicity of the active principle of the present invention, administered orally to rats, gives 50% lethal dose values (LD50) of greater than 2000 mg/kg. Diethyl acetone-α,α'-dioxalate is thus not classed as a risk product.

[5] = test system: tyrosinase in melanocytes of human skin explants; assay: Depigmenting power in vitro on skin explants (histological evaluation of melanocyte coloration); assay type: cell-based; conditions: for tyrosinase activity: 15 hours at 37° C., 0.005 M L-DOPA
Protocol: The inhibitory activity of diethyl acetone-α,α'-dioxalate on tyrisonase in melanocytes was evaluated by a histological study on skin explants.
After thawing and fixing for 30 minutes in 10% (w/v) formaldehyde solution, human skin explants obtained from an abdominoplasty are incubated for 15 hours at 37° C. in the presence of 0.005 M of L-DOPA and of the test products.
The diethyl acetone-α,α'-dioxalate is used at concentrations of 0.5%, 1% and 2% (w/v) in a 10% (v/v) solution of DMSO in water.
Control explants incubated only in the presence of 0.005 M of L-DOPA are prepared in parallel.
For the histological examination, 4 μm thick slices are taken from explants included in paraffin and the slices are stained with cresyl violet.
Optical microscopy photographs in white light allow a visual evaluation of the coloration of the melanocytes reflecting the tyrosinase activity.

| Compound | inhibition of the DOPA-tyrosinase reaction (white band on brown background) (tyrosinase [1]) | in vitro production of melanin by tyrosinase from L-tyrosine (tyrosinase [2]; 2.58% solution in alcohol) | Absorbance at 477 nm solution to be assayed, mean (tyrosinase [2]; mean of five tests, 2.0 ml of 2.58% solution in alcohol, 1 h 30 min at 37° C., control mean ≈1.16) | Absorbance at 477 nm solution to be assayed (tyrosinase [2]; single tests 1-5, 2.0 ml of 2.58% solution in alcohol, 1 h 30 min at 37° C., control solution 1.16-1.23) | dose dependence of depigmenting efficacy [3] | LD50 [4] [mg/kg] | tyrosinase activity ([5]; 0.5% (w/v) in 10% DMSO) | tyrosinase activity ([5]; 1.0% (w/v) in 10% DMSO) | tyrosinase activity ([5]; 2.0% (w/v) in 10% DMSO) | inhibition of the tyrosinase activity in skin explants ([5]; tested at 0.5%, 1.0% and 2%) | tyrosinase activity ([5]; 1.1% (w/v) in 10% DMSO) |
| --- | --- | --- | --- | --- | --- | --- | --- | --- | --- | --- | --- |
| CCOC(=O)C(O)=CC(=O)C=C(O)C(=O)OCC [diethyl acetone-α,α'-dioxalate] | effectively inhibits the DOPA-tyrosinase reaction | effectively inhibits the in vitro production of melanin | ≈ 0 | ≈ 0 | acts in a dose-dependent manner | > 2000 | 0 | 0 | 0 | totally inhibits the tyrosinase activity | – |
| Oc1ccc(O)cc1 [hydroquinone, reference compound] | – | – | – | – | – | – | – | – | – | – | 0 |
